{"source": "patent US20240384250A1", "about": "“FIBROBLAST GROWTH FACTOR 23 MODULATING COMPOUNDS” (THE UAB RESEARCH FOUNDATION, priority 2021, published 2024)", "key": {"[1]": {"tested_on": "male BALB/c mice", "assay": "Serial FGF23 and heparin injections in mice, echocardiography and heart weight", "type": "in vivo, mouse", "settings": "heparin 125 USP/kg and/or FGF23 40 μg/kg", "protocol": "FGF23 injections were administered following a similar protocol established previously. 13,72,73 Briefly, 12-week-old male BALB/c mice (The Jackson Laboratory) underwent tail vein injections. The day before the experiment, mice underwent echocardiographic analysis, as described below. Mice were anesthetized in 2.5% isoflurane and placed on a heat pad. Each group consisted of 5 mice, and different groups were injected with isotonic saline, heparin, FGF23, or FGF23 and heparin combined. Per injection, 40 μg/kg of FGF23 and 125, 62.5, or 12.5 USP/kg of heparin dissolved in 200 μl of isotonic saline were used, with 8 hours were used between injections for a total of 5 consecutive days. All injections were performed via the lateral tail vein. On the morning of the sixth day, 16 hours after the final tail vein injection, animals underwent echocardiographic analysis and were killed. Middle sections of hearts were cut along the short axis and stored overnight in 4% phosphate-buffered formaldehyde solution. Sections were sent to IDEXX Laboratories for embedding, hematoxylin and eosin (H&E) staining, and sectioning. Sections for wheat germ agglutinin (WGA) labeling were not stained by IDEXX Laboratories.\nEchocardiographic analysis was performed on day 6 of the experiment for FGF23-injected mice by using the Vevo 770 or Vevo 3100 imaging system (FUJIFILM VisualSonics). Animals were anesthetized with 1.5% isoflurane, and normal body temperature was maintained using a rectal probe for temperature monitoring. For analysis, both B- and M-mode images were obtained in the short- and long-axis views. Correct positioning of the transducer was ensured using B-mode imaging in the long-axis view before switching to the short-axis view. Image analysis was performed using Vevo 770 Workstation and Vevo LAB software (FUJIFILM VisualSonics)."}, "[2]": {"biological_target": "T1, FGF23/FGFR4 binding (Homo sapiens, UniProt P22455+Q9GZV9, R179Q)", "T1 construct": "Fc-FGFR4 protein (human ectodomain) was immobilized; purchased R&D Systems human FGF23 2604FG025/CF; human FGFR4 685FR050", "T1 sequence (Q9GZV9 25-251 R179Q)": "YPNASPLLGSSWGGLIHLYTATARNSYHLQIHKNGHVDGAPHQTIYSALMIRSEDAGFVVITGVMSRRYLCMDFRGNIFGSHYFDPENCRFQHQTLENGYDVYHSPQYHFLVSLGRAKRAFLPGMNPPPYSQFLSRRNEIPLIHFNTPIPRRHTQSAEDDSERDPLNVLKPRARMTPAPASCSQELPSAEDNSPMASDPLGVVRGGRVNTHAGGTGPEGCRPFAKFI", "T1 sequence (P22455 22-369 limits assumed)": "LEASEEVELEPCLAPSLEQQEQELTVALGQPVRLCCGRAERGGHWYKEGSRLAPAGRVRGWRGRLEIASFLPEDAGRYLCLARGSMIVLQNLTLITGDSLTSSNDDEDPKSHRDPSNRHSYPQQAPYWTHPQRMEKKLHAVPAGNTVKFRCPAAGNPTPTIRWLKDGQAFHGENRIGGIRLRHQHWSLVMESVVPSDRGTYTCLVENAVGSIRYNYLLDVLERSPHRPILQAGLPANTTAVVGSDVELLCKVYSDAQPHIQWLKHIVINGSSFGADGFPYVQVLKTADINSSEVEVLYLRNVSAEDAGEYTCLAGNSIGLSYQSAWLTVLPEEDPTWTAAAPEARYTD", "assay": "Surface plasmon resonance, FGF23 binding to surface FGFR4 with heparin or sKL in solution", "settings": "heparin or sKL in solution", "protocol": "For the direct quantitative analysis of label-free molecular interactions in real time, surface plasmon resonance studies were conducted using BIAcore T200 and T200 evaluation software (28975001, Cytiva). Sensor SA (BR100398) and CMS chips (BR100399) were from Cytiva. For the preparation of heparin chips, heparin (2 mg) and amine-PEG3-Biotin (2 mg, 21347, Pierce) were dissolved in 200 μl of H2O and 10 mg of NaCNBH3 was added. The reaction mixture was heated at 70° C. for 24 hours; an additional 10 mg of NaCNBH3 was added; and the reaction was heated at 70° C. for another 24 hours. After cooling to room temperature, the mixture was desalted with the spin column (3000 MWCO). Biotinylated heparin was collected, freeze dried, and used for chip preparation. Biotinylated heparin was immobilized to streptavidin chips according to the manufacturer's protocol. In brief, 20 μl of biotinylated heparin solution (0.1 mg/ml) in HBS-P running buffer (0.01 M N-2-hydroxyethylpiperazine-N′-2-ethanesulfonic acid, 0.15 M NaCl, 0.005% surfactant P20 [pH7.4]; BR100368, Cytiva) was injected over flow cell 2 of the streptavidin chip at a flow rate of 10 μl/min. The successful immobilization of heparin was confirmed by the observation of an approximately 200-resonance unit increase in the sensor chip. […] The response was monitored as a function of time (sensorgram) at 25° C."}}}
{"substance": "heparin [reference compound]", "values": [{"measurement": "Endocardial % EF", "setting": "[1]", "value": "56.51 ± 4.08", "unit": "%"}, {"measurement": "Endocardial % FAC", "setting": "[1]", "value": "47.34 ± 2.41", "unit": "%"}, {"measurement": "Endocardial Area; s", "setting": "[1]", "value": "5.47 ± 0.44", "unit": "mm²"}, {"measurement": "Endocardial major; d", "setting": "[1]", "value": "7.23 ± 0.11", "unit": "mm"}, {"measurement": "Epicardial Area: s", "setting": "[1]", "value": "18.2 ± 0.63", "unit": "mm²"}, {"measurement": "Epicardial Area; d", "setting": "[1]", "value": "22.5 ± 0.78", "unit": "mm²"}, {"measurement": "Heart rate", "setting": "[1]", "value": "448.40 ± 4.52", "unit": "BPM"}, {"measurement": "LV Mass; d", "setting": "[1]", "value": "111.90 ± 5.23", "unit": "mg"}, {"measurement": "T; d", "setting": "[1]", "value": "0.88 ± 0.03", "unit": "mm"}, {"measurement": "increase in FGF23/FGFR4 binding affinity", "setting": "[2]", "value": "approximately 3 fold"}]}
